Consider eight molecules from PubChem BioAssay (NCI).

SMILES strings stand for the structures. Several values for one entry are separate records, joined by “and”; a condition that tells them apart may be missing. Equal values may be shown once.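 Dose response: 5 concentrations. Exposure: 48 h. Format: 96-well plates. Endpoint: linear interpolation; highest concentration if not reached. GI50: concentration for 50% inhibition of growth. At the TGI there is no net growth.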

Some test systems named below: UACC-257 melanoma; HL-60(TB) leukemia; SN12C renal; KM12 colon; A498 renal; UACC-62 melanoma; NCI-H226 lung; SF-539 CNS; RXF 393 renal; MALME-3M melanoma.
What all share (experiment): inhibition of tumour cell growth, NCI panel, 48 h

As for `Nc1ccc(/C=C/c2ccc3ncccc3c2)cc1`, the GI50 is greater than 100 µM in the test on UACC-257 melanoma; 1.52 µM in the test on HL-60(TB) leukemia; greater than 100 µM in the test with SN12C renal; 49.1 µM in the test on KM12 colon; greater than 100 µM in the test with A498 renal; greater than 100 µM with UACC-62 melanoma. The GI50 in the test on NCI-H226 lung was greater than 100 µM; in the test on SF-539 CNS it was greater than 100 µM; in the test on RXF 393 renal, 73.2 µM; with MALME-3M melanoma, greater than 100 µM. The TGI with UACC-257 melanoma, in the test with HL-60(TB) leukemia, in the test with SN12C renal, in the test on KM12 colon, in the test with A498 renal and in the test on UACC-62 melanoma was greater than 100 µM throughout. Besides, the TGI in the test on NCI-H226 lung, with SF-539 CNS, in the test with RXF 393 renal and in the test with MALME-3M melanoma was greater than 100 µM in each case.

Regarding `ClC1=C(Cl)C(Cl)(C2(Cl)C(Cl)=C(Cl)C(Cl)=C2Cl)C(Cl)=C1Cl`, the GI50 in the test with UACC-257 melanoma was 0.543 µM; with HL-60(TB) leukemia, 0.206 µM; with SN12C renal, 1.32 µM; in the test on KM12 colon, 2.04 µM; with A498 renal, 1.71 µM; with UACC-62 melanoma, 0.43 µM. The GI50 is 0.296 µM in the test on NCI-H226 lung, 1.74 µM in the test on SF-539 CNS, 0.186 µM in the test on RXF 393 renal and 0.188 µM with MALME-3M melanoma. For the same molecule, the TGI turned out to be 1.84 µM in the test with UACC-257 melanoma; 0.549 µM in the test on HL-60(TB) leukemia; 3.8 µM with SN12C renal; 4.32 µM in the test with KM12 colon; 3.19 µM in the test with A498 renal; 1.61 µM with UACC-62 melanoma. For the same molecule, the TGI in the test on NCI-H226 lung turned out to be 2.74 µM; in the test with SF-539 CNS, 3.66 µM; in the test on RXF 393 renal, 0.396 µM; in the test on MALME-3M melanoma, 0.446 µM.

Take `Sc1cccc2cccnc12`: the GI50 in the test on UACC-257 melanoma was 1.37 µM; in the test on HL-60(TB) leukemia it was 1.02 µM; with SN12C renal, 1.14 µM; with KM12 colon, 0.874 µM; in the test with A498 renal, 2.45 µM; in the test with UACC-62 melanoma, 0.529 µM. For the same molecule, the GI50 was 1.61 µM with NCI-H226 lung, 0.776 µM with SF-539 CNS, 1.4 µM in the test on RXF 393 renal and 1.06 µM in the test on MALME-3M melanoma. Besides, the TGI in the test on UACC-257 melanoma was found to be 12.3 µM; with HL-60(TB) leukemia, 7.21 µM; in the test on SN12C renal, 15.1 µM; with KM12 colon, 12.1 µM; in the test on A498 renal it was 8.8 µM; in the test with UACC-62 melanoma it was 7.25 µM. For the same molecule, the TGI was found to be 8.83 µM in the test on NCI-H226 lung, 12.9 µM with SF-539 CNS, 8.28 µM in the test with RXF 393 renal and 14 µM in the test with MALME-3M melanoma.

Take `O=C([CH-]C(=O)c1ccccc1)c1ccccc1.O=C([CH-]C(=O)c1ccccc1)c1ccccc1.O=C([CH-]C(=O)c1ccccc1)c1ccccc1.[Ga+3]`: the GI50 with UACC-257 melanoma is 93.3 µM; in the test on HL-60(TB) leukemia, 20.5 µM; with SN12C renal it was 43.8 µM; with KM12 colon it was 91.5 µM; in the test with A498 renal, 56.8 µM; in the test with UACC-62 melanoma, 32.7 µM. The GI50 in the test with NCI-H226 lung was 26.1 µM; in the test with SF-539 CNS, 33.9 µM; with RXF 393 renal, 43.7 µM; in the test with MALME-3M melanoma, greater than 100 µM. Further, the TGI with UACC-257 melanoma, in the test with HL-60(TB) leukemia, with SN12C renal, in the test on KM12 colon, in the test on A498 renal and in the test with UACC-62 melanoma was greater than 100 µM each time. Also, the TGI in the test on NCI-H226 lung, in the test on SF-539 CNS, in the test with RXF 393 renal and in the test with MALME-3M melanoma was greater than 100 µM each time.

For `N#CCCNc1nonc1-c1nc2ccccc2n1CC(=O)c1ccc(N)cc1`, the TGI was greater than 100 µM with UACC-257 melanoma; greater than 100 µM in the test with SN12C renal; 1.28 µM with KM12 colon; 0.0873 µM in the test on A498 renal; greater than 100 µM in the test on UACC-62 melanoma; greater than 100 µM in the test with NCI-H226 lung. Also, the TGI in the test with SF-539 CNS is 1.19 µM; with RXF 393 renal it was greater than 100 µM; in the test with MALME-3M melanoma it was greater than 100 µM. The GI50 in the test with HL-60(TB) leukemia was less than 0.0164 µM; in the test on SN12C renal it was 0.0447 µM; in the test on KM12 colon it was less than 0.0118 µM; in the test with A498 renal it was less than 0.01 µM; in the test on UACC-62 melanoma, less than 0.0154 µM; with NCI-H226 lung it was 0.098 µM. Also, the figures for the GI50 in the test with SF-539 CNS and in the test on RXF 393 renal were 0.0252 µM and 0.0129 µM, respectively.

Turning to `CC(=O)OC(C)(C)C1CC[C@]2(C)/C=C/C(C)C[C@@H](O)/C=C(\C)CC(O)C12` (some centres not stated), the TGI in the test with UACC-257 melanoma, in the test with HL-60(TB) leukemia, in the test with SN12C renal, with KM12 colon, in the test with A498 renal and in the test on UACC-62 melanoma was greater than 100 µM in each case. The TGI in the test with NCI-H226 lung, in the test with SF-539 CNS, in the test on RXF 393 renal and in the test on MALME-3M melanoma was greater than 100 µM throughout.

As for `COc1cccc2c1nc(C(F)F)n2-c1nc(-c2ccc(NS(=O)(=O)CCN(C)C)cc2)nc(N2CCOCC2)n1`, the GI50 in the test with UACC-257 melanoma is 0.116 µM; with HL-60(TB) leukemia, 0.0397 µM; in the test on SN12C renal, 0.305 µM; with KM12 colon, 0.275 µM; in the test on A498 renal it was 0.0337 µM; in the test on UACC-62 melanoma, 0.134 µM. The GI50 in the test on NCI-H226 lung was 0.191 µM; with SF-539 CNS, 0.197 µM; in the test with RXF 393 renal, 0.105 µM; with MALME-3M melanoma it was 0.0333 µM. Moreover, the TGI in the test with UACC-257 melanoma is 1.72 µM; with HL-60(TB) leukemia it was 10.2 µM; in the test with SN12C renal, greater than 100 µM; with KM12 colon, 12.8 µM; with A498 renal, 0.279 µM; in the test with UACC-62 melanoma, 1.45 µM. The TGI is 6.43 µM in the test with NCI-H226 lung, 2.63 µM in the test on SF-539 CNS, 0.58 µM in the test with RXF 393 renal and 0.317 µM in the test with MALME-3M melanoma.

Take `Cc1ccc(NC(=O)c2ccc(CN3CCN(C)CC3)cc2)cc1Nc1nc(-c2cccnc2)cs1`: the GI50 in the test on UACC-257 melanoma was 7.9 µM and 7.34 µM; in the test on HL-60(TB) leukemia, 2.25 µM and 0.4 µM; in the test with SN12C renal, 13.9 µM and > 10 µM; in the test on KM12 colon it was 9.85 µM and 6.72 µM; with A498 renal, 16 µM and > 10 µM; with UACC-62 melanoma, 15 µM and 8.56 µM. In addition, the GI50 with NCI-H226 lung is 7.94 µM and 4.12 µM; in the test on SF-539 CNS, 1.7 µM and 1.13 µM; in the test with RXF 393 renal it was 2.98 µM and 1.9 µM; with MALME-3M melanoma it was 7.14 µM and 2.26 µM. The TGI was 20.2 µM and > 10 µM with UACC-257 melanoma; 6.96 µM and 5.47 µM in the test with HL-60(TB) leukemia; 36 µM and > 10 µM in the test with SN12C renal; 23.2 µM and > 10 µM in the test on KM12 colon; 29.6 µM and > 10 µM with A498 renal; 30.4 µM and > 10 µM in the test with UACC-62 melanoma. Further, the TGI was 29.6 µM and > 10 µM with NCI-H226 lung; 6.81 µM and 2.48 µM in the test on SF-539 CNS; 8.41 µM and 4 µM in the test on RXF 393 renal; 21 µM and 6.92 µM in the test with MALME-3M melanoma.
